{"source": "patent US20220031596A1", "about": "“ANTI-AGING AGENT AND ANTI-AGING METHOD” (priority 2018, published 2022)", "type_in_all_cases": "in vivo, human", "key": {"[1]": {"system": "prolactin concentration in the plasma", "assay": "Evaluation of prolactin secretion promoting effect (plasma prolactin, 24-week oral ingestion)", "conditions": "for prolactin concentration in the plasma, 0 weeks (before ingestion) / prolactin concentration in the plasma, 24 weeks (after ingestion) / prolactin concentration in the plasma, Change rate (24 weeks - 0 weeks): Low Dose Group (100 mg/daily, oral), mean±SD; for prolactin concentration in the plasma, 0 weeks (before ingestion): baseline", "procedure": "In order to confirm a change in the prolactin quantity before and after ingestion of the nicotinamide mononucleotide, a test was conducted on healthy males and females aged 50 to 70 years.\nAs a sample of Working Example 9, a capsule formulation containing the nicotinamide mononucleotide and starch (100 mg of the nicotinamide mononucleotide in 4 capsules) (manufactured by SHINKOWA PHARMACEUTICAL Co., Ltd.) was used.\n(§1) Each group consisting of five healthy males and females aged 50 to 70 years in an unbiased age group ingested the above high dose capsule formulation once a day by 4 capsules for 24 weeks (total 10 subjects, 100 mg/daily ingestion). In order to conduct appropriate evaluations, those who had been regularly using medical products for chronic diseases, those who had been consuming healthy foods that may affect clinical research, and those who were currently participating in other clinical researches or clinical trials or had participated in other clinical researches or clinical trials within the last three months were excluded from the subject for the evaluation. The capsule formulations were ingested at 10 am (between meals and fasting state) together with water or lukewarm water (oral administration).\nMeasurement of the prolactin quantity in the plasma was conducted by requesting the measurement to an external public organization according to a usual method. FIGS. 18a to 18c indicate transitions of the prolactin concentration (ng/ml) in the plasma for 24 weeks. FIG. 18a represents the transitions of the whole subjects; FIG. 18b represents the transitions of the male subjects; FIG. 18c represents the transitions of the female subjects. Further, FIGS. 19a to 19c indicate change rates (%) of the blood prolactin concentration up to 24 weeks when the nicotinamide mononucleotide was orally administered to the subjects for 24 weeks. FIG. 19a represents the change rates of the whole subjects; FIG. 19b represents the change rates of the male subjects; FIG. 19c represents the change rates of the female subjects. Further, Table 9 indicates the numerical values of the prolactin concentration (ng/ml) in the plasma before the ingestion of the nicotinamide mononucleotide (0 weeks) and after the ingestion of the nicotinamide mononucleotide (24 weeks). Note that the numerical values represent mean values±standard deviation."}, "[2]": {"system": "testosterone concentration in the plasma", "assay": "Evaluation of testosterone secretion promoting effect (plasma testosterone, 24-week oral ingestion)", "conditions": "for testosterone concentration in the plasma, 0 weeks (before ingestion) / testosterone concentration in the plasma, 24 weeks (after ingestion) / testosterone concentration in the plasma, Change rate (24 weeks - 0 weeks): High Dose Group (200 mg/daily, oral), mean±SD; for testosterone concentration in the plasma, 0 weeks (before ingestion): baseline", "procedure": "In order to confirm a change in the testosterone quantity before and after ingestion of the nicotinamide mononucleotide, a test was conducted on healthy males and females aged 50 to 70 years.\nAs a sample of Working Example 8, a capsule formulation containing the nicotinamide mononucleotide and starch (200 mg of the nicotinamide mononucleotide in 4 capsules) (manufactured by SHINKOWA PHARMACEUTICAL Co., Ltd.) was used.\nas §1, with “200” for “100”\nMeasurement of the testosterone quantity in the plasma was conducted by requesting the measurement to an external public organization according to a usual method. FIGS. 16a to 16c indicate transitions of the testosterone concentration (ng/ml) in the plasma for 24 weeks. FIG. 16a represents the transitions of the whole subjects; FIG. 16b represents the transitions of the male subjects; FIG. 16c represents the transitions of the female subjects. Further, FIGS. 17a to 17c indicate change rates (%) of the blood testosterone concentration up to 24 weeks when the nicotinamide mononucleotide was orally administered to the subjects for 24 weeks. FIG. 17a represents the change rates of the whole subjects; FIG. 17b represents the change rates of the male subjects; FIG. 17c represents the change rates of the female subjects. Further, Table 8 indicates the numerical values of the testosterone concentration (ng/ml) in the plasma before the ingestion of the nicotinamide mononucleotide (0 weeks) and after the ingestion of the nicotinamide mononucleotide (24 weeks). Note that the numerical values represent mean values±standard deviation."}, "[3]": {"assay": "Safety observation in subjects after ingestion for 24 weeks (complaints, stool abnormality)", "conditions": "healthy males and females aged 50 to 70 years, oral", "procedure": "as §1, with “the above low dose capsule formulation once a day by 4 capsules for 24 weeks (total 10 subjects, a low dose group: 100 mg/daily ingestion). On the other hand, each group consisting of five healthy males and females aged 50 to 70 years in the unbiased age group ingested the above high dose” for “the above high dose”, “10 subjects, a high dose group: 200 mg/daily ingestion).” for “10 subjects, 100 mg/daily ingestion).”, “or clinical trials, or had” for “or clinical trials or had”"}}, "data": [{"smiles": "NC(=O)c1ccc[n+]([C@@H]2O[C@H](COP(=O)([O-])O)[C@@H](O)[C@H]2O)c1", "note": "[nicotinamide mononucleotide]", "values": [{"measurement": "prolactin concentration in the plasma, 0 weeks (before ingestion)", "setting": "[1]; Female", "value": "8.50 ± 2.71", "unit": "ng/mL"}, {"measurement": "prolactin concentration in the plasma, 24 weeks (after ingestion)", "setting": "[1]; Female", "value": "10.15 ± 3.22", "unit": "ng/mL"}, {"measurement": "prolactin concentration in the plasma, Change rate (24 weeks - 0 weeks)", "setting": "[1]; Female", "value": "1.66 ± 4.32", "unit": "ng/mL"}, {"measurement": "prolactin concentration in the plasma, 0 weeks (before ingestion)", "setting": "[1]; Male", "value": "9.23 ± 1.92", "unit": "ng/mL"}, {"measurement": "prolactin concentration in the plasma, 24 weeks (after ingestion)", "setting": "[1]; Male", "value": "9.58 ± 2.47", "unit": "ng/mL"}, {"measurement": "prolactin concentration in the plasma, Change rate (24 weeks - 0 weeks)", "setting": "[1]; Male", "value": "0.35 ± 1.40", "unit": "ng/mL"}, {"measurement": "prolactin concentration in the plasma, 0 weeks (before ingestion)", "setting": "[1]; Whole Subjects", "value": "8.86 ± 2.25", "unit": "ng/mL"}, {"measurement": "prolactin concentration in the plasma, 24 weeks (after ingestion)", "setting": "[1]; Whole Subjects", "value": "9.87 ± 2.72", "unit": "ng/mL"}, {"measurement": "prolactin concentration in the plasma, Change rate (24 weeks - 0 weeks)", "setting": "[1]; Whole Subjects", "value": "1.00 ± 3.10", "unit": "ng/mL"}, {"measurement": "prolactin concentrations in the plasma, effect of ingestion (in words)", "setting": "[1]; oral, 100 mg/daily, 24 weeks, FIGS. 18a-18c, 19a-19c", "value": "increased"}, {"measurement": "testosterone concentration in the plasma, 0 weeks (before ingestion)", "setting": "[2]; Female", "value": "0.09 ± 0.06", "unit": "ng/mL"}, {"measurement": "testosterone concentration in the plasma, 24 weeks (after ingestion)", "setting": "[2]; Female", "value": "0.10 ± 0.05", "unit": "ng/mL"}, {"measurement": "testosterone concentration in the plasma, Change rate (24 weeks - 0 weeks)", "setting": "[2]; Female", "value": "0.00 ± 0.03", "unit": "ng/mL"}, {"measurement": "testosterone concentration in the plasma, 0 weeks (before ingestion)", "setting": "[2]; Male", "value": "5.66 ± 1.54", "unit": "ng/mL"}, {"measurement": "testosterone concentration in the plasma, 24 weeks (after ingestion)", "setting": "[2]; Male", "value": "5.90 ± 1.59", "unit": "ng/mL"}, {"measurement": "testosterone concentration in the plasma, Change rate (24 weeks - 0 weeks)", "setting": "[2]; Male", "value": "0.25 ± 0.92", "unit": "ng/mL"}, {"measurement": "testosterone concentration in the plasma, 0 weeks (before ingestion)", "setting": "[2]; Whole Subjects", "value": "2.87 ± 3.11", "unit": "ng/mL"}, {"measurement": "testosterone concentration in the plasma, 24 weeks (after ingestion)", "setting": "[2]; Whole Subjects", "value": "3.00 ± 3.24", "unit": "ng/mL"}, {"measurement": "testosterone concentration in the plasma, Change rate (24 weeks - 0 weeks)", "setting": "[2]; Whole Subjects", "value": "0.13 ± 0.63", "unit": "ng/mL"}, {"measurement": "testosterone concentrations in the plasma, effect of ingestion (in words)", "setting": "[2]; oral, 200 mg/daily, 24 weeks, FIGS. 16a-16c, 17a-17c", "value": "increased"}, {"measurement": "unidentified complaint (abdominal pain, nausea, vomiting, headache) or stool abnormality after the ingestion for 24 weeks", "setting": "[3]; 100 mg and 200 mg/daily groups", "value": "did not show any unidentified complaint"}, {"measurement": "unidentified complaint (abdominal pain, nausea, vomiting, headache) or stool abnormality after the ingestion for 24 weeks", "setting": "[3]; 100 mg/daily", "value": "did not show any unidentified complaint"}, {"measurement": "unidentified complaint (abdominal pain, nausea, vomiting, headache) or stool abnormality after the ingestion for 24 weeks", "setting": "[3]; 200 mg/daily", "value": "did not show any unidentified complaint"}]}]}
